Test results published in patent US20250136618A1, “ANTIBIOTIC PYRAZINOTHIAZINE DERIVATIVES AND PROCESS OF PREPARATION THEREOF” (Bugworks Research India PVT Ltd, priority 2021, published 2025).
In brackets after ≈: the same amount, converted by molar mass.

Legend:
Type in all cases: cell-based
[1] = tested on: Acinetobacter baumannii ATCC 19606; assay: Minimum Inhibitory Concentration (MIC) in LB media; conditions: Acinetobacter baumannii, ATCC19606
Text: (§1) The compounds of Formula Ia and Formula Ib are of interest due to their potent antibacterial effects. The ability of the compounds disclosed herein to achieve an antibacterial effect may be evaluated with regard to their ability to inhibit the growth of bacterial species like Escherichia coli ATCC 25922, Staphylococcus aureus ATCC 29213, Klebsiella pneumoniae ATCC 13883, Acinetobacter baumannii ATCC 19606, Pseudomonas aeruginosa ATCC 27853 and Enterococcus faecalis ATCC 29212 using an assay based on the following Minimum Inhibitory Concentration (MIC) protocol:
(§2) The test bacteria were grown in Luria Bertani Broth (HIMEDIA M1245), 25 g of the powder was dissolved in 1000 ml distilled water and sterilized by autoclaving at 15 lbs pressure (121° C.) for 20 minutes. The medium sterility was checked by incubating at 37° C. for a period of 48 h. Bacterial cultures that were stored as glycerol stocks at −80° C. were subcultured on LB agar plates to obtain isolated colonies. A single colony of each strain was cultured in LB broth. The cultures were incubated at 37° C., 200 rpm till they reached an optical density (OD at 600 nm) of 0.8 to 1. This log phase culture was diluted in LB broth to a cell number of 5-8*10^5 CFU/mL to be used as inoculum for MIC experiments. Test compounds were dissolved in dimethyl sulfoxide (DMSO) to a stock concentration of 4 mg/ml. A two-fold dilution series of this DMSO stock was prepared in a 96 well V bottom microtitre plate from rows A to H. A 3 μL volume of these dilutions are transferred to a 96-well flat bottom microtitre assay plate. Controls to monitor the effects of DMSO and media sterility were included. Each well was inoculated with 150 μL of the above diluted culture. The plates were incubated at 37° C. overnight in a humidified incubator. The following morning, the plates were read using a Spectrophotometer at 600 nm wavelength. […] The antibacterial activity (MIC) determined against representative gram-positive (S. aureus, E. faecalis) and gram-negative (E. coli, Aeruginosa, K. pneumoniae, and A. baumannii) pathogen are reported Table 1.

[2] = tested on: Enterococcus faecalis ATCC 29212; assay: Minimum Inhibitory Concentration (MIC) in LB media; conditions: Enterococcus faecalis, ATCC29212, read-out: Minimum Inhibitory Concentration E. faecalis ATCC 29212
Text: as §1, §2

[3] = tested on: Escherichia coli ATCC 25922; assay: Minimum Inhibitory Concentration (MIC) in LB media; conditions: Escherichia coli, ATCC25922, read-out: Minimum Inhibitory Concentration E. coli ATCC 25922
Text: as §1, §2

[4] = tested on: Klebsiella pneumoniae ATCC 13883; assay: Minimum Inhibitory Concentration (MIC) in LB media; conditions: Klebsiella pneumoniae, ATCC13883, read-out: Minimum Inhibitory Concentration K. pneumoniae ATCC 13883
Text: as §1, §2

[5] = tested on: Pseudomonas aeruginosa ATCC 27853; assay: Minimum Inhibitory Concentration (MIC) in LB media; conditions: Pseudomonas aeruginosa, ATCC27853
Text: as §1, §2

[6] = tested on: Staphylococcus aureus ATCC 29213; assay: Minimum Inhibitory Concentration (MIC) in LB media; conditions: Staphylococcus aureus, ATCC29213, read-out: Minimum Inhibitory Concentration S. aureus ATCC 29213
Text: as §1, §2

CHO-K1 cells = assay: In-vitro micronucleus assay
Experimental: Genetic toxicology studies were performed on the compounds of the present disclosure to assess their ability to cause DNA damage. The in-vitro micronucleus assay measured the concentration (μM) of the compound at which micronuclei formation occurred. A micronuclei formation at lower concentration indicates more genetic damage or genotoxicity.
Micronucleus formation is a hallmark of genotoxicity, and the micronucleus assay is an important component of genotoxicity screening. Micronuclei are chromatin-containing bodies that represent fragments or even whole chromosomes that were not incorporated into a daughter cell nucleus at mitosis. The purpose of the assay is to detect agents that induce chromosome damage leading to the induction of micronuclei in interphase cells. The in vitro micronucleus assay was conducted in CHO-K1 cells according to the procedure described by Diaz, D et al [Mutat Res. 630(1-2):1-13. […] The formation of the micronucleus is identified by image-based high content analysis from binucleated cells.

hERG potassium channel = hERG potassium channel (Homo sapiens (Human), UniProt Q12809); assay: hERG inhibition assay (Qpatch HTX automated electrophysiology); conditions: CHO cell line expressing hERG, whole-cell patch clamp
Experimental: Electrophysiological recordings were made from a Chinese Hamster Ovary cell line stably expressing the full-length hERG potassium channel. Single cell ionic currents were measured in whole-cell patch clamp configuration at room temperature (21-23° C.) using the Qpatch HTX platform (Sophion). Intracellular solution contained (mM): 120 KF, 20 KCl, 10 EGTA, 10 HEPES and was buffered to pH 7.3. […] Cells were clamped at a holding potential of −80 mV. Cells were stepped to +20 mV for 2 s then −40 mV for 3 s before returning to the holding potential. […] Compounds were then incubated for 2 minutes prior to a second measurement of ion channel current using an identical pulse train.

Acinetobacter baumannii = assay: MIC90 determination, clinical strains (CLSI); conditions: N=38
Citrobacter freundii = assay: MIC90 determination, clinical strains (CLSI); conditions: N=19
Enterobacter cloacae = assay: MIC90 determination, clinical strains (CLSI); conditions: N=26
Escherichia coli = assay: MIC90 determination, clinical strains (CLSI); conditions: N=38
[7] = tested on: Klebsiella aerogenes, K. oxytoca; assay: MIC90 determination, clinical strains (CLSI); conditions: N=17
Klebsiella pneumoniae = assay: MIC90 determination, clinical strains (CLSI); conditions: N=86
Morganella morganii = assay: MIC90 determination, clinical strains (CLSI); conditions: N=11
Proteus mirabilis = assay: MIC90 determination, clinical strains (CLSI); conditions: N=12
[8] = tested on: Providencia rettgeri, P. stuartii; assay: MIC90 determination, clinical strains (CLSI); conditions: N=12
Pseudomonas aeruginosa = assay: MIC90 determination, clinical strains (CLSI); conditions: N=34
Serratia marcescens = assay: MIC90 determination, clinical strains (CLSI); conditions: N=15

hERG potassium channel, sequence (Q12809 whole entry): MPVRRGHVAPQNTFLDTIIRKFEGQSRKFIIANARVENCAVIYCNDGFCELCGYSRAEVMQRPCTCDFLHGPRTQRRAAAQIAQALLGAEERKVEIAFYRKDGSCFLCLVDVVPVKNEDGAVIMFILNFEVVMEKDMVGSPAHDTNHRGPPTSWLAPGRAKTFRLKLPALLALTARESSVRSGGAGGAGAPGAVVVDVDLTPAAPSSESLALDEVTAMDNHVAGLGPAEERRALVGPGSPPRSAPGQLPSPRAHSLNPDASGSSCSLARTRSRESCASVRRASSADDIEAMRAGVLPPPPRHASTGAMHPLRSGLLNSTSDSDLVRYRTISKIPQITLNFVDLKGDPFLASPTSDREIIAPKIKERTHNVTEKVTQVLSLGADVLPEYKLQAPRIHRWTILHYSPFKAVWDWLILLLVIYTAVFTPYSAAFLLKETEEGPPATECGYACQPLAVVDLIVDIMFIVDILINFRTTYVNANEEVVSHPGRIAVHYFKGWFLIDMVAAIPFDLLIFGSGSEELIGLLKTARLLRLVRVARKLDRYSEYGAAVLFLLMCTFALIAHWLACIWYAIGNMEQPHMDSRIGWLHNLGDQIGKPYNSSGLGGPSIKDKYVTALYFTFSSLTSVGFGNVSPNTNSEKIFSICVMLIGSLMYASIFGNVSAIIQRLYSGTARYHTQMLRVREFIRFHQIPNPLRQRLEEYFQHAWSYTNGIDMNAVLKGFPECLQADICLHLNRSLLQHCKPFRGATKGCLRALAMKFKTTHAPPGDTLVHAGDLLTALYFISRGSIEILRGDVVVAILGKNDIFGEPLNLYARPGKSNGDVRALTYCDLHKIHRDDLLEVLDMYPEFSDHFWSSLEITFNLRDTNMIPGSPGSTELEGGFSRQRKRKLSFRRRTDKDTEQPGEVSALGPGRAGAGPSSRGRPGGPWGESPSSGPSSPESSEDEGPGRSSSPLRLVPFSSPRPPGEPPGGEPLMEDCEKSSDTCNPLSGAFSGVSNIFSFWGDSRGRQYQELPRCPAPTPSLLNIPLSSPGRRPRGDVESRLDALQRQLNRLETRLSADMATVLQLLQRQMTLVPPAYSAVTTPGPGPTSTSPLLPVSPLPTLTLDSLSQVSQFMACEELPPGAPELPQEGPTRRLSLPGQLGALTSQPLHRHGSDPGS

Row | Structure (SMILES) | MIC [1] [µg/mL] | MIC [2] [µg/mL] | MIC [3] [µg/mL] | MIC [4] [µg/mL] | MIC [5] [µg/mL] | MIC [6] [µg/mL] | genotoxicity risk (in words) (CHO-K1 cells) | % (in-vitro micronucleus assay) (CHO-K1 cells; Chinese hamster) [%] | In vitro micronucleus forming concentration (CHO-K1 cells; Chinese hamster) [µM] | IC50 (hERG potassium channel) [µM] | other results
1 | CN1C(=O)CNc2ccc(OCCNC[C@@H]3CN(c4cnc5c(n4)NC(=O)CS5)C(=O)O3)nc21 [Compound 5, (R)-5-(((2-((4-methyl-3-oxo-1,2,3,4-tetrahydropyrido[2,3-b]pyrazin-6-yl)oxy)ethyl)amino)methyl)-3-(3-oxo-3,4-dihydro-2H-pyrazino[2,3-b][1,4]thiazin-6-yl)oxazolidin-2-one] | 0.06 (≈ 0.123 µM) | 0.125 (≈ 0.257 µM) | 0.03 (≈ 0.0617 µM) | 0.06 (≈ 0.123 µM) | 1 (≈ 2.06 µM) | < 0.015 | completely devoid of any genotoxicity risk | 0.5 | >1000 | > 300 | micronucleus formation (in words) (CHO-K1 cells): did not induce micronucleus formation
2 | [2H]C([2H])([2H])N1C(=O)CNc2ccc(OCCNCC3CN(c4cnc5c(n4)NC(=O)CS5)C(=O)O3)nc21 (stereo in doubt) [Compound 9, (R)-5-(((2-((4-(methyl-d3)-3-oxo-1,2,3,4-tetrahydropyrido[2,3-b]pyrazin-6-yl)oxy)ethyl)amino)methyl)-3-(3-oxo-3,4-dihydro-2H-pyrazino[2,3-b][1,4]thiazin-6-yl) oxazolidin-2-one] | 0.03 (≈ 0.0613 µM) | 0.03 (≈ 0.0613 µM) | 0.06 (≈ 0.123 µM) | 0.06 (≈ 0.123 µM) | 1 (≈ 2.04 µM) | < 0.015 | completely devoid of any genotoxicity risk | 0.51 | >1000 | 141 | 
3 | CO[C@@]12[C@H](COC(N)=O)C3=C(C(=O)C(C)=C(N)C3=O)N1C[C@@H]1N[C@@H]12 [Mitomycin C, reference compound] |  |  |  |  |  |  |  |  |  |  | % (in-vitro micronucleus assay) (CHO-K1 cells; CHO-K1 cells): 1.98%; In vitro micronucleus forming concentration (CHO-K1 cells; CHO-K1 cells): 0.300 µM
4 | CN1C(=O)CNc2ccc(OCCNC[C@H]3CN(c4cnc5c(n4)NC(=O)CS5)C(=O)O3)nc21 [Compound 6, (S)-5-(((2-((4-methyl-3-oxo-1,2,3,4-tetrahydropyrido[2,3-b]pyrazin-6-yl)oxy)ethyl)amino)methyl)-3-(3-oxo-3,4-dihydro-2H-pyrazino[2,3-b][1,4]thiazin-6-yl)oxazolidin-2-one] | 0.06 (≈ 0.123 µM) | 0.06 (≈ 0.123 µM) | 0.06 (≈ 0.123 µM) | 0.06 (≈ 0.123 µM) | 0.5 (≈ 1.03 µM) | < 0.015 | completely devoid of any genotoxicity risk | 0.4 | >1000 | > 300 | micronucleus formation (in words) (CHO-K1 cells): did not induce micronucleus formation
5 | C[C@@H](O)[C@H]1C(=O)N2C(C(=O)O)=C(S[C@@H]3CN[C@H](C(=O)N(C)C)C3)[C@H](C)[C@H]12 [Meropenem, reference compound] |  |  |  |  |  |  |  |  |  |  | MIC 90 Acinetobacter baumannii (Acinetobacter baumannii): >8 µg/mL; MIC 90 Citrobacter freundii (Citrobacter freundii): 8 µg/mL (≈ 20.9 µM); MIC 90 Enterobacter cloacae (Enterobacter cloacae): 16 µg/mL (≈ 41.7 µM); MIC 90 Escherichia coli (Escherichia coli): 2 µg/mL (≈ 5.22 µM); MIC 90 Klebsiella aerogenes, K. oxytoca [7]: 16 µg/mL (≈ 41.7 µM); MIC 90 Klebsiella pneumoniae (Klebsiella pneumoniae): 16 µg/mL (≈ 41.7 µM); MIC 90 Morganella morganii (Morganella morganii): 0.12 µg/mL (≈ 0.313 µM); MIC 90 Proteus mirabilis (Proteus mirabilis): 1 µg/mL (≈ 2.61 µM); MIC 90 Providencia rettgeri, P. stuartii [8]: 4 µg/mL (≈ 10.4 µM); MIC 90 Pseudomonas aeruginosa (Pseudomonas aeruginosa): 16 µg/mL (≈ 41.7 µM); MIC 90 Serratia marcescens (Serratia marcescens): 16 µg/mL (≈ 41.7 µM)

The remaining compounds from weak to strong by MIC [1], led by results:

Row | MIC [1] [µg/mL] | MIC [2] [µg/mL] | MIC [3] [µg/mL] | MIC [4] [µg/mL] | MIC [5] [µg/mL] | MIC [6] [µg/mL] | Structure (SMILES) | genotoxicity risk (in words) (CHO-K1 cells) | % (in-vitro micronucleus assay) (CHO-K1 cells; Chinese hamster) [%] | In vitro micronucleus forming concentration (CHO-K1 cells; Chinese hamster) [µM] | IC50 (hERG potassium channel) [µM] | other results
6 | 0.4 (≈ 1.21 µM) | 0.4 (≈ 1.21 µM) | 0.012 (≈ 0.0362 µM) | 0.05 (≈ 0.151 µM) | 0.1 (≈ 0.302 µM) | 0.4 (≈ 1.21 µM) | O=C(O)c1cn(C2CC2)c2cc(N3CCNCC3)c(F)cc2c1=O [Ciprofloxacin, reference compound] |  |  |  |  | 
7 | 0.06 (≈ 0.119 µM) | 0.125 (≈ 0.248 µM) | 0.03 (≈ 0.0595 µM) | 0.06 (≈ 0.119 µM) | 1 (≈ 1.98 µM) | < 0.015 | CN1C(=O)CNc2cc(F)c(OCCNC[C@H]3CN(c4cnc5c(n4)NC(=O)CS5)C(=O)O3)nc21 [Compound 8, (S)-5-(((2-((7-fluoro-4-methyl-3-oxo-1,2,3,4-tetrahydropyrido [2,3-b]pyrazin-6-yl)oxy)ethyl)amino)methyl)-3-(3-oxo-3,4-dihydro-2H-pyrazino[2,3-b][1,4]thiazin-6-yl)oxazolidin-2-one] | completely devoid of any genotoxicity risk | 0.5 | >1000 | > 300 | 
8 | 0.03 (≈ 0.0595 µM) | 0.06 (≈ 0.119 µM) | 0.03 (≈ 0.0595 µM) | 0.06 (≈ 0.119 µM) | 1 (≈ 1.98 µM) | < 0.015 | CN1C(=O)CNc2cc(F)c(OCCNC[C@@H]3CN(c4cnc5c(n4)NC(=O)CS5)C(=O)O3)nc21 [Compound 7, (R)-5-(((2-((7-fluoro-4-methyl-3-oxo-1,2,3,4-tetrahydropyrido[2,3-b]pyrazin-6-yl)oxy)ethyl)amino)methyl)-3-(3-oxo-3,4-dihydro-2H-pyrazino[2,3-b][1,4]thiazin-6-yl)oxazolidin-2-one] | completely devoid of any genotoxicity risk | 0.41 | >1000 | > 300 | 
